From patent US20080175974A1, “Isomaltulose as an Aftertaste-Shortening Agent” (Suedzucker Aktiengesellschaft Mannheim/Ochsenfurt, priority 2005, published 2008)

Tests used:
[1] = cited from earlier work
[2] = water; cited from earlier work
[3] = system: test subjects; experiment: Sensory evaluation of milk chocolate containing sucralose (aftertaste); format: in vivo, humans; details: milk chocolate with 42.41 g/100 g isomaltulose and 0.02 g/100 g sucralose; 12 to 17 test subjects; assessed after chocolate completely dissolved in the mouth; compared with trehalose, lactite, maltite, erythrite chocolates; FIG. 1
Procedure: Milk chocolates containing sucralose were produced, which contained either a sugar substitute or isomaltulose (Palatinose™) as the sweetener that is absorbed by the body. These milk chocolates were evaluated sensorially with respect to their aftertaste that is typical of sucralose.
“You have before you samples of chocolate containing sucralose. Sucralose has a pronounced, lingering aftertaste. The following samples are to be evaluated with regard to whether, and if so to what extent, this aftertaste is perceptible.
Please take a serving of chocolate (1 “square”) and suck on it. […] Then please assess the aftertaste of the sample.
To neutralize the taste, please have some of the prepared tea and the white bread.”
Samples: • Milk chocolate containing sucralose with isomaltulose • Milk chocolate containing sucralose with trehalose • Milk chocolate containing sucralose with lactite • Milk chocolate containing sucralose with maltite • Milk chocolate containing sucralose with erythrite
The sensory evaluation of the chocolates containing sucralose was performed by 12 to 17 test subjects.
The aftertaste of the sucralose was assessed after the chocolate had been completely dissolved in the mouth.

[4] = system: test subjects; experiment: Sensory evaluation of aqueous solutions containing sucralose (aftertaste); format: in vivo, humans; details: aqueous solution 7.916% isomaltulose, 0.004% sucralose; 5 test subjects; assessed immediately following consumption; compared with maltodextrin or saccharose solutions; scale 0=no perceptible aftertaste, 2=clearly perceptible
Procedure: Aqueous solutions containing sucralose were prepared, which contained isomaltulose, maltodextrin or saccharose as a sweetener. All the solutions also contained sucralose. […] Samples: • Maltodextrin solution: 7.916% maltodextrin; 0.004% sucralose; 92.080% water • Palatinose™ solution: 7.916% isomaltulose; 0.004% sucralose; 92.080% water • Saccharose solution: 5.603% saccharose; 0.004% sucralose; 94.393% water The sensory evaluation of the solutions containing sucralose was performed by 5 test subjects. The aftertaste of the sucralose was assessed immediately following consumption of the solution containing sucralose.

SMILES | sweetness relative to sugar ([1]; sucralose in aqueous solution) | aqueous solubility [2] | sweetening power ([1]; 10% aqueous isomaltulose solutions) | lingering aftertaste of sucralose [3] | lingering aftertaste of sucralose [4]
OC[C@H]1O[C@H](O[C@]2(CCl)O[C@H](CCl)[C@@H](O)[C@@H]2O)[C@H](O)[C@@H](O)[C@H]1Cl [sucralose, 1,6-dichloro-1,6-didesoxy-β-D-fructofuranosyl-4-chloro-4-desoxy-α-D-galactopyranoside] | approximately 600 times sweeter than sugar |  |  |  | 
O=C(CO)[C@@H](O)[C@H](O)[C@H](O)CO[C@H]1O[C@H](CO)[C@@H](O)[C@H](O)[C@H]1O [isomaltulose, 6-O-α-D-glucopyranosyl-fructose] |  | 0.49 g anhydrous isomaltulose per gram of water | approximately 0.4 of the sweetening power of sugar | decreases the lingering aftertaste | decreases the lingering aftertaste
